Experimental data: ChEMBL document CHEMBL1687756 (Antimicrob Agents Chemother, 2010)

How the values were obtained:
[1] = Ratio of drug level in thymus to plasma in female Beagle dog at 200 mg/kg, sc after 1 month; format: ADME, organism-based, Canis lupus familiaris; design: dose 200 mg/kg, route subcutaneous
[2] = Cmax in female dog at 200 mg, sc after 29 days; settings: in vivo
[3] = Plasma concentration in female Beagle dog at 200 mg/kg administered intramuscularly after 1 month; format: ADME, organism-based, Canis lupus familiaris; design: dose 200 mg/kg, route intramuscular; settings: im, read-out: Drug uptake
[4] = Ratio of drug level in lymph node mandibular to plasma in Beagle dog at 5 mg/kg, sc after 3 months; format: ADME, organism-based, Canis lupus familiaris; design: dose 5 mg/kg, route subcutaneous
[5] = Ratio of drug level in lymph node iliac to plasma in Beagle dog at 5 mg/kg, sc after 6 months; format: ADME, organism-based, Canis lupus familiaris; design: dose 5 mg/kg, route subcutaneous
[6] = Tmax in female dog at 400 mg administered intramuscularly after 85 days; settings: in vivo, im
[7] = Tmax in Beagle dog at 5 mg/kg administered intramuscularly after 184 days; format: ADME, organism-based, Canis lupus familiaris; design: dose 5 mg/kg, route intramuscular; settings: in vivo, im
[8] = Ratio of drug level in lymph node iliac to plasma in Beagle dog at 5 mg/kg, sc after 3 months; format: ADME, organism-based, Canis lupus familiaris; design: dose 5 mg/kg, route subcutaneous
[9] = Ratio of drug level in thymus to plasma in male Beagle dog at 400 mg/kg, sc after 3 months; format: ADME, organism-based, Canis lupus familiaris; design: dose 400 mg/kg, route subcutaneous
[10] = Drug level in Beagle dog muscle at non-injected site at 5 mg/kg, sc after 6 months; format: ADME, organism-based, Canis lupus familiaris, Muscle tissue; design: dose 5 mg/kg, route subcutaneous; settings: read-out: Drug uptake
[11] = Ratio of drug level in spleen to plasma in male Beagle dog at 200 mg/kg, sc after 1 month; format: ADME, organism-based, Canis lupus familiaris; design: dose 200 mg/kg, route subcutaneous
[12] = Drug level in female Beagle dog thymus at 400 mg/kg, sc after 3 months; format: ADME, organism-based, Canis lupus familiaris; design: dose 400 mg/kg, route subcutaneous; settings: read-out: Drug uptake
[13] = AUC (0 to last) in male dog at 400 mg administered intramuscularly after 85 days; settings: plasma, im
[14] = Drug level in Beagle dog muscle at non-injected site at 5 mg/kg administered intramuscularly after 3 months; format: ADME, organism-based, Canis lupus familiaris, Muscle tissue; design: dose 5 mg/kg, route intramuscular; settings: im, read-out: Drug uptake
[15] = Drug level in Beagle dog spleen at 5 mg/kg administered intramuscularly after 6 months; format: ADME, organism-based, Canis lupus familiaris; design: dose 5 mg/kg, route intramuscular; settings: im, read-out: Drug uptake
[16] = Drug level in female Beagle dog spleen at 200 mg/kg administered intramuscularly after 3 months; format: ADME, organism-based, Canis lupus familiaris; design: dose 200 mg/kg, route intramuscular; settings: im, read-out: Drug uptake
[17] = Plasma concentration in male Beagle dog at 200 mg/kg, sc after 3 months; format: ADME, organism-based, Canis lupus familiaris; design: dose 200 mg/kg, route subcutaneous
[18] = Ratio of drug level in spleen to plasma in Beagle dog at 5 mg/kg, sc after 6 months; format: ADME, organism-based, Canis lupus familiaris; design: dose 5 mg/kg, route subcutaneous
[19] = Plasma concentration in Beagle dog at 5 mg/kg, sc after 3 months; format: ADME, organism-based, Canis lupus familiaris; design: dose 5 mg/kg, route subcutaneous
[20] = Ratio of drug level in thymus to plasma in female Beagle dog at 200 mg/kg administered intramuscularly after 3 months; format: ADME, organism-based, Canis lupus familiaris; design: dose 200 mg/kg, route intramuscular; settings: im
[21] = Drug level in female Beagle dog spleen at 200 mg/kg, sc after 1 month; format: ADME, organism-based, Canis lupus familiaris; design: dose 200 mg/kg, route subcutaneous; settings: read-out: Drug uptake
[22] = Ratio of drug level in thymus to plasma in female Beagle dog at 400 mg/kg, sc after 1 month; format: ADME, organism-based, Canis lupus familiaris; design: dose 400 mg/kg, route subcutaneous
[23] = Absolute bioavailability in Beagle dog at 5 mg/kg, sc after 176 days; format: ADME, organism-based, Canis lupus familiaris; settings: in vivo
[24] = Plasma concentration in female Beagle dog at 400 mg/kg administered intramuscularly after 3 months; format: ADME, organism-based, Canis lupus familiaris; design: dose 400 mg/kg, route intramuscular; settings: im
[25] = Ratio of drug level in spleen to plasma in female Beagle dog at 200 mg/kg, sc after 3 months; format: ADME, organism-based, Canis lupus familiaris; design: dose 200 mg/kg, route subcutaneous
[26] = Drug level in Beagle dog lymph node popliteal at 5 mg/kg, sc after 1 month; format: ADME, organism-based, Canis lupus familiaris; design: dose 5 mg/kg, route subcutaneous; settings: read-out: Drug uptake
[27] = Ratio of drug level in spleen to plasma in female Beagle dog at 200 mg/kg, sc after 1 month; format: ADME, organism-based, Canis lupus familiaris; design: dose 200 mg/kg, route subcutaneous
[28] = Drug level in Beagle dog skin at non-injected site at 5 mg/kg, sc after 6 months; format: ADME, organism-based, Canis lupus familiaris, Zone of skin; design: dose 5 mg/kg, route subcutaneous; settings: read-out: Drug uptake
[29] = Drug level in female Beagle dog thymus at 400 mg/kg administered intramuscularly after 3 months; format: ADME, organism-based, Canis lupus familiaris; design: dose 400 mg/kg, route intramuscular; settings: im, read-out: Drug uptake
[30] = Drug level in male Beagle dog thymus at 400 mg/kg administered intramuscularly after 3 months; format: ADME, organism-based, Canis lupus familiaris; design: dose 400 mg/kg, route intramuscular; settings: im, read-out: Drug uptake
[31] = Cmax in female dog at 200 mg administered intramuscularly after 85 days; settings: in vivo, im
[32] = Ratio of drug level in spleen to plasma in male Beagle dog at 200 mg/kg, sc after 3 months; format: ADME, organism-based, Canis lupus familiaris; design: dose 200 mg/kg, route subcutaneous
[33] = (§1) Plasma concentration in Beagle dog at 5 mg/kg administered intramuscularly after 3 months; format: ADME, organism-based, Canis lupus familiaris; design: dose 5 mg/kg, route intramuscular; settings: im
Plasma = test: as §1; format: ADME, organism-based, Canis lupus familiaris; design: dose 5 mg/kg, route intramuscular; settings: in vivo, im, 2191.5 h, BLD = below limit of detection
[34] = Ratio of drug level in thymus to plasma in Beagle dog at 5 mg/kg, sc after 3 months; format: ADME, organism-based, Canis lupus familiaris; design: dose 5 mg/kg, route subcutaneous
Canis familiaris [35] = test: Toxicity in Beagle dog assessed as irritation at 20 mg/kg administered intramuscularly after 3 months; format: organism-based, Canis lupus familiaris; design: dose 20 mg/kg, route intramuscular; settings: in vivo, im, 2191.5 h
Canis familiaris [36] = test: Toxicity in Beagle dog assessed as irritation at 20 mg/kg, sc after 3 months; format: organism-based, Canis lupus familiaris; design: dose 20 mg/kg, route subcutaneous; settings: in vivo, 2191.5 h
[37] = Ratio of drug level in liver to plasma in Beagle dog at 5 mg/kg, sc after 6 months; format: ADME, organism-based, Canis lupus familiaris; design: dose 5 mg/kg, route subcutaneous
Canis familiaris [38] = test: Toxicity in Beagle dog assessed as abscess formation at 20 mg/kg, sc after 3 months; format: organism-based, Canis lupus familiaris; design: dose 20 mg/kg, route subcutaneous; settings: in vivo, 2191.5 h
[39] = Cmax in female dog at 400 mg administered intramuscularly after 29 days; settings: in vivo, im
[40] = Ratio of drug level in lymph node iliac to plasma in Beagle dog at 5 mg/kg administered intramuscularly after 1 month; format: ADME, organism-based, Canis lupus familiaris; design: dose 5 mg/kg, route intramuscular; settings: im
[41] = Ratio of drug level in lymph node axillar to plasma in Beagle dog at 5 mg/kg, sc after 3 months; format: ADME, organism-based, Canis lupus familiaris; design: dose 5 mg/kg, route subcutaneous; settings: axillary lymph node/plasma
[42] = Drug level in Beagle dog lymph node popliteal at 5 mg/kg administered intramuscularly after 1 month; format: ADME, organism-based, Canis lupus familiaris; design: dose 5 mg/kg, route intramuscular; settings: im, read-out: Drug uptake
[43] = Drug level in Beagle dog lymph node iliac at 5 mg/kg, sc after 1 month; format: ADME, organism-based, Canis lupus familiaris; design: dose 5 mg/kg, route subcutaneous; settings: read-out: Drug uptake
[44] = Drug level in Beagle dog lymph node popliteal at 5 mg/kg administered intramuscularly after 3 months; format: ADME, organism-based, Canis lupus familiaris; design: dose 5 mg/kg, route intramuscular; settings: im, read-out: Drug uptake
[45] = AUC (0 to last) in female dog at 400 mg administered intramuscularly after 85 days; settings: plasma, im
[46] = Drug level in Beagle dog spleen at 5 mg/kg, sc after 6 months; format: ADME, organism-based, Canis lupus familiaris; design: dose 5 mg/kg, route subcutaneous; settings: read-out: Drug uptake
[47] = Drug level in Beagle dog liver at 5 mg/kg, sc after 3 months; format: ADME, organism-based, Canis lupus familiaris; design: dose 5 mg/kg, route subcutaneous; settings: read-out: Drug uptake
[48] = Ratio of drug level in lymph node axillar to plasma in Beagle dog at 5 mg/kg, sc after 6 months; format: ADME, organism-based, Canis lupus familiaris; design: dose 5 mg/kg, route subcutaneous; settings: axillary lymph node/plasma
[49] = Drug level in male Beagle dog spleen at 200 mg/kg administered intramuscularly after 3 months; format: ADME, organism-based, Canis lupus familiaris; design: dose 200 mg/kg, route intramuscular; settings: im, read-out: Drug uptake
[50] = Plasma concentration in male Beagle dog at 400 mg/kg, sc after 3 months; format: ADME, organism-based, Canis lupus familiaris; design: dose 400 mg/kg, route subcutaneous
[51] = Drug level in Beagle dog lymph node iliac at 5 mg/kg administered intramuscularly after 6 months; format: ADME, organism-based, Canis lupus familiaris; design: dose 5 mg/kg, route intramuscular; settings: im, read-out: Drug uptake
[52] = Drug level in Beagle dog lymph node axillar at 5 mg/kg administered intramuscularly after 6 months; format: ADME, organism-based, Canis lupus familiaris; design: dose 5 mg/kg, route intramuscular; settings: axillary lymph node, im, read-out: Drug uptake
[53] = Drug level in Beagle dog liver at 5 mg/kg, sc after 6 months; format: ADME, organism-based, Canis lupus familiaris; design: dose 5 mg/kg, route subcutaneous; settings: read-out: Drug uptake
[54] = Plasma concentration in female Beagle dog at 400 mg/kg administered intramuscularly after 1 month; format: ADME, organism-based, Canis lupus familiaris; design: dose 400 mg/kg, route intramuscular; settings: im, read-out: Drug uptake

**Q.** What does the source list for `Cc1cc(/C=C/C#N)cc(C)c1Nc1ccnc(Nc2ccc(C#N)cc2)n1` [RILPIVIRINE]?
**A.** Kp at 730.5 h [1]: 3.9; Cmax [2]: 185 ng/mL; concentration at 730.5 h [3]: 61 ng/g; Kp at 2191.5 h [4]: 4; Kp at 4383 h [5]: 7.7; Tmax [6]: 16 h; Tmax [7]: 24 h; Kp at 2191.5 h [8]: 5.2; Kp at 2191.5 h [9]: 3.5; concentration at 4383 h [10]: < 5 ng/g; Kp at 730.5 h [11]: 2; concentration at 2191.5 h [12]: 101 ng/g; AUC(0-t) at 2040 h [13]: 281 µg·h/mL; concentration at 2191.5 h [14]: 84.1 ng/g; concentration at 4383 h [15]: < 5 ng/g; concentration at 2191.5 h [16]: 22.1 ng/g; concentration at 2191.5 h [17]: 15.2 ng/mL; Kp at 4383 h [18]: 5.5; concentration at 2191.5 h [19]: 3.3 ng/mL; Kp at 2191.5 h [20]: 2.8; concentration at 730.5 h [21]: 14.5 ng/g; Kp at 730.5 h [22]: 5; bioavailability [23]: 80%; concentration at 2191.5 h [24]: 20.3 ng/mL; Kp at 2191.5 h [25]: 1.9; concentration at 730.5 h [26]: 68.2 ng/g; Kp at 730.5 h [27]: 2; concentration at 4383 h [28]: 13.3 ng/g; concentration at 2191.5 h [29]: 109 ng/g; concentration at 2191.5 h [30]: 76 ng/g; Cmax [31]: 1140 ng/mL; Kp at 2191.5 h [32]: 2.5; concentration at 2191.5 h [33]: < 1 ng/mL; Cp (Plasma): BLD; Kp at 2191.5 h [34]: 13; Activity (Canis familiaris [35]): Non-toxic; Activity (Canis familiaris [36]): Non-toxic; Kp at 4383 h [37]: 24; Activity (Canis familiaris [38]): Non-toxic; Cmax [39]: 6190 ng/mL; Kp at 730.5 h [40]: 168; Kp at 2191.5 h [41]: 6.8; concentration at 730.5 h [42]: 6500 ng/g; concentration at 730.5 h [43]: 64.9 ng/g; concentration at 2191.5 h [44]: 13.7 ng/g; AUC(0-t) at 2040 h [45]: 265 µg·h/mL; concentration at 4383 h [46]: 7.1 ng/g; concentration at 2191.5 h [47]: 45.6 ng/g; Kp at 4383 h [48]: 6.7; concentration at 2191.5 h [49]: 23.8 ng/g; concentration at 2191.5 h [50]: 48.4 ng/mL; concentration at 4383 h [51]: 10.7 ng/g; concentration at 4383 h [52]: 12.2 ng/g; concentration at 4383 h [53]: 31.1 ng/g; concentration at 730.5 h [54]: 118 ng/g
